Measured values published in patent US20040053847A1, “Diastereomeric peptitdes and pharmaceutical compositions comprising them” (priority 2000, published 2004).
Converted amounts (≈) assume the structure as drawn. One block for each compound: values may come before it. Square brackets hold non-standard residues; d marks the D form. Peptide text beside a SMILES is read from it.

Legend:
[1] = tested on: Aspergillus niger ATCC 9642; assay type: cell-based; settings: ATCC 9642
Protocol: (§1) The antifungal activity of the diastereomers was examined in sterile 96-well plates (Nunc F96 microtiter plates) in a final volume of 200 μL as follows: 100 μl of a suspension containing fungi at concentration of 1×10^4 Colony-Forming Units (CFU)/ml in culture medium (RPMI 1640, 0.165 M MOPS pH 7.0, with L-glutamine, without NaHCO3) was added to 100 μl of water containing the peptide in serial 2-fold dilutions in water. The fungi were incubated in the presence of the diastereomeric peptides for 24-48 h at 35° C. in a Binder KB115 incubator under agitation. Growth inhibition was determined by measuring the absorbance at 620 nm with a Microplate autoreader E1309 (Bio-tek Instruments). Antifungal activity is expressed as the minimal inhibitory concentration (MIC), the concentration at which 100% inhibition of growth was observed after the incubation time mentioned above. The fungi used were: Aspergillus niger ATCC 9642, Candida albicans ATCC 10231 and Cryptococcus neoformans ATCC 66031.

[2] = tested on: Candida albicans ATCC 10231; assay type: cell-based; settings: ATCC 10231
Protocol: as §1

[3] = tested on: Cryptococcus neoformans ATCC 66031; assay type: cell-based
Protocol: as §1

[4] = tested on: B16 F10 mouse melanoma cell line; experiment: In vitro anticancer activity, Trypan blue cell viability, LC50; settings: 50% cell mortality after 24 h incubation, medium without serum
Protocol: The anticancer activity of the diastereomers 1, 2, 8, 9 and 10 was examined against B16 F10 mouse melanoma cell line. Melanoma cells were grown in RPMI-1640 medium supplemented with 10% fetal calf serum and antibiotics, at 37° C., in humidified atmosphere at 5% CO2 and 95% air. In addition, the cell-selectivity of the diastereomeric peptides was studied by examining their effect on NIH-3T3 normal fibroblasts cell line. NIH-3T3 mouse fibroblasts cells were grown in DMEM medium supplemented with 10% bovine calf serum and antibiotics under the same conditions as described above for B16 F10 mouse melanoma cells. Melanoma cells (2×10^5 cells ml^−1) or NIH-3T3 cells (2.5×10^5 cells ml^−1) were seeded in tissue culture plates (3.5 cm). After 48 h, cells were washed thrice with the corresponding medium. Then the cells were incubated at 37° C. in medium (without serum and antibiotics) in the presence of the tested diastereomeric peptides dissolved in PBS, at different concentrations. […] Following 24 h of incubation, the cells were harvested with trypsin (0.25%)-EDTA (0.05%) and centrifuiged for 10 min at 270×g. The precipitated cells were suspended in the corresponding medium and counted in a hemocytometer (Neubauer). Cell viability was determined by Trypan blue dye exclusion.

[5] = Cell selectivity, Trypan blue cell viability, LC50; assay type: cell-based, mouse; settings: mouse, NIH-3T3 fibroblasts; 50% cell mortality after 24 h incubation, medium without serum; read-out: Lethal Concentration (LC50), NIH-3T3 fibroblasts
human breast MCF-7 cells = experiment: Xenograft model of human breast MCF-7 cells in SCID mice; assay type: in vivo
Protocol: The in-vivo anticancer assay was conducted on SCID (Severe Combined Immune Deficiency) mice using the xenograft model of human breast MCF-7 cells. Groups of 6 SCID female mice weighing 18-20 g (6-week old), bred in an animal isolator (IVC racks under specific pathogen-free (SPF) conditions at 24±1° C., were used. Viable human breast carcinoma MCF-7 cells (ATCC HTB-22−1×10^7 cells in 0.2 ml of PBS) were injected subcutaneously (s.c.) into the dorsal side of SCID mice. 50 μg/mouse of estradiol benzoate was injected s.c. weekly as a supplement for 4 weeks. […] Mitomycin at a dose of 2 mg/kg was administered intraperitoneally (IP) twice a week for 5 doses. The tumor size, body weight and the signs of overt animal toxicity after each treatment were recorded and observed. At the end of the experiment, hematological analysis was carried out.

A549 lung carcinoma = assay type: cell-based, human; settings: 24 h
Protocol: (§2) Aliquots of 100 μl of tumor cell suspension (about 2.5-5×10^3/well) were placed in 96-well microtiter plates in an atmosphere of 5% CO2 at 37° C. […] At the end of incubation, 20 μl of AlamarBlue 75% reagent was added to each well for another 6-hour incubation before detection of cell viability by fluorescence intensity. Fluorescence intensity was measured using a Spectraflour Plus plate reader with excitation at 530 nm and emission at 590 nm. The assays were used to detect changes in cell proliferation based on the ability of viable cells to cause AlamarBlue to change from its oxidized (non-fluorescent, blue) to a reduced (fluorescent, red) form. With the results obtained from the AlamarBlue reaction, cell proliferation can be quantified and metabolic activity of viable cells can be examined.

[6] = tested on: HT-29 colon adenocarcinoma; assay type: cell-based, human; settings: 24 h
Protocol: as §2

[7] = tested on: MCF-7 breast adenocarcinoma; assay type: cell-based, human; settings: 24 h
Protocol: as §2

[8] = tested on: PC-3 prostate adenocarcinoma; assay type: cell-based, human; settings: 24 h
Protocol: as §2

[9] = tested on: SK-MEL- (ATCC HTB-70) malignant melanoma; assay type: cell-based, human; settings: 24 h
Protocol: as §2

[10] = Hematology analysis on Day 25, MEAN ± SEM
[11] = hematological analysis at the end of the assay
[12] = peptide 9 3 mg/kg IV, mitomycin 2 mg/kg IP

SMILES: CC(C)C[C@H](NC(=O)[C@H](CC(C)C)NC(=O)[C@@H](CCCCN)NC(=O)[C@H](CC(C)C)NC(=O)[C@H](CC(C)C)NC(=O)[C@H](CCCCN)NC(=O)[C@@H](CCCCN)NC(=O)[C@@H](CC(C)C)NC(=O)[C@H](CC(C)C)NC(=O)[C@H](CCCCN)NC(=O)[C@H](CCCCN)NC(=O)[C@H](CC(C)C)NC(=O)[C@@H](CC(C)C)NC(=O)[C@H](CCCCN)NC(=O)[C@@H](N)CC(C)C)C(N)=O [Peptide 3, [D]-L^3,8,K^9,13-K6L9] (H-LK[dL]LKKL[dL][dK]KLL[dK]LL-NH2; N-terminus assumed)
MIC, A. niger ATCC 9642 [1]: 90 µg/mL (≈ 49.9 µM)
MIC, C. albicans ATCC 10231 [2]: 40 µg/mL (≈ 22.2 µM)
MIC, C. neoformans ATCC 66031 [3]: 2.8 µg/mL (≈ 1.55 µM)

SMILES: CC(C)C[C@H](NC(=O)CN)C(=O)N[C@H](CC(C)C)C(=O)N[C@@H](CCCCN)C(=O)N[C@@H](CC(C)C)C(=O)N[C@@H](CC(C)C)C(=O)N[C@H](CCCCN)C(=O)N[C@H](CCCCN)C(=O)N[C@@H](CC(C)C)C(=O)N[C@H](CC(C)C)C(=O)N[C@@H](CCCCN)C(=O)N[C@@H](CC(C)C)C(=O)N[C@H](CC(C)C)C(=O)N[C@@H](CC(C)C)C(=O)N[C@@H](CCCCN)C(=O)N[C@@H](CCCCN)C(N)=O [Peptide 8, [D]-L^3,10,13,K^7,8-GK6L9] (H-GL[dL]KLL[dK][dK]L[dL]KL[dL]LKK-NH2; N-terminus assumed)
MIC, A. niger ATCC 9642 [1]: 30 µg/mL (≈ 16.1 µM)
MIC, C. albicans ATCC 10231 [2]: 30 µg/mL (≈ 16.1 µM)
MIC, C. neoformans ATCC 66031 [3]: 1.5 µg/mL (≈ 0.806 µM)
Lethal Concentration (LC50), B16-F10 melanoma [4]: 9 µg/mL
CC50 at 24 h [5]: 30 µg/mL (≈ 16.1 µM)

SMILES: CO[C@@]12[C@H](COC(N)=O)C3=C(C(=O)C(C)=C(N)C3=O)N1C[C@@H]1N[C@@H]12 [Mitomycin C, mitomycin C]
PLT (human breast MCF-7 cells; [10]): 396000 µL⁻¹
RBC (human breast MCF-7 cells; [10]): 10.55 ± 0.37 × 10^6/μl
WBC (human breast MCF-7 cells; [10]): 670 µL⁻¹
Reduction of RBC (human breast MCF-7 cells; [11]): significant reduction
Reduction of WBC and platelets (human breast MCF-7 cells; [11]): significant reduction
Effect on tumor growth (FIG. 1) (human breast MCF-7 cells; peptide 9 3 mg/kg IV twice a week, 6 doses, mitomycin 2 mg/kg IP twice a week, 5 doses): more potent than peptide 9
Body weight and condition of animals (FIG. 2) (human breast MCF-7 cells; [12]): signs of weakness and loss of weight
Side effects in treated animals (human breast MCF-7 cells; [12]): severe side effects throughout the assay period

SMILES: CC(C)C[C@H](NC(=O)[C@H](CC(C)C)NC(=O)[C@@H](CCCCN)NC(=O)[C@@H](CCCCN)NC(=O)[C@H](CC(C)C)NC(=O)[C@@H](CC(C)C)NC(=O)[C@H](CCCCN)NC(=O)[C@H](CC(C)C)NC(=O)[C@@H](CC(C)C)NC(=O)[C@H](CC(C)C)NC(=O)[C@@H](N)CCCCN)C(=O)N[C@@H](CCCCN)C(=O)N[C@H](CC(C)C)C(=O)N[C@@H](CC(C)C)C(=O)N[C@@H](CCCCN)C(N)=O [Peptide 10, [D]-L^3,6,13,K^8,9,13-K6L9] (H-KL[dL]LK[dL]L[dK][dK]LLK[dL]LK-NH2; N-terminus assumed)
CC50 at 24 h [5]: 140 µg/mL (≈ 77.6 µM)
IC50 (A549 lung carcinoma): 2.4 µM
IC50 [6]: 15 µM
IC50 [7]: 3.6 µM
IC50 [8]: 8.9 µM
IC50 [9]: 2.6 µM

SMILES: CC(C)C[C@H](NC(=O)[C@H](CC(C)C)NC(=O)[C@@H](CCCCN)NC(=O)[C@H](CC(C)C)NC(=O)[C@H](CC(C)C)NC(=O)[C@H](CCCCN)NC(=O)[C@@H](CCCCN)NC(=O)[C@@H](CC(C)C)NC(=O)[C@H](CC(C)C)NC(=O)[C@@H](CCCCN)NC(=O)[C@H](CCCCN)NC(=O)[C@H](CC(C)C)NC(=O)[C@@H](CC(C)C)NC(=O)[C@H](CCCCN)NC(=O)[C@@H](N)CC(C)C)C(N)=O [Peptide 4, [D]-L^3,8,K^6,9,13-K6L9] (H-LK[dL]LK[dK]L[dL][dK]KLL[dK]LL-NH2; N-terminus assumed)
MIC, A. niger ATCC 9642 [1]: 180 µg/mL (≈ 99.7 µM)
MIC, C. albicans ATCC 10231 [2]: 50 µg/mL (≈ 27.7 µM)
MIC, C. neoformans ATCC 66031 [3]: 5.6 µg/mL (≈ 3.1 µM)

The remaining lines, values ahead:

MIC, A. niger ATCC 9642 [1]: 50 µg/mL (≈ 27.7 µM)
MIC, C. albicans ATCC 10231 [2]: 50 µg/mL (≈ 27.7 µM)
MIC, C. neoformans ATCC 66031 [3]: 2.9 µg/mL (≈ 1.61 µM)
SMILES: CC(C)C[C@H](NC(=O)[C@H](CCCCN)NC(=O)[C@@H](CC(C)C)NC(=O)[C@H](CC(C)C)NC(=O)[C@@H](N)CCCCN)C(=O)N[C@@H](CC(C)C)C(=O)N[C@H](CCCCN)C(=O)N[C@H](CCCCN)C(=O)N[C@@H](CC(C)C)C(=O)N[C@H](CC(C)C)C(=O)N[C@@H](CCCCN)C(=O)N[C@@H](CC(C)C)C(=O)N[C@H](CC(C)C)C(=O)N[C@@H](CC(C)C)C(=O)N[C@@H](CCCCN)C(N)=O [Peptide 7, [D]-L^3,10,13,K^7,8-K6L9] (H-KL[dL]KLL[dK][dK]L[dL]KL[dL]LK-NH2; N-terminus assumed)

MIC, A. niger ATCC 9642 [1]: 50 µg/mL (≈ 26.1 µM)
MIC, C. albicans ATCC 10231 [2]: 50 µg/mL (≈ 26.1 µM)
MIC, C. neoformans ATCC 66031 [3]: 3 µg/mL (≈ 1.56 µM)
SMILES: CC(C)C[C@H](NC(=O)CN)C(=O)N[C@H](CC(C)C)C(=O)N[C@@H](CC(C)C)C(=O)N[C@@H](CCCNC(=N)N)C(=O)N[C@H](CC(C)C)C(=O)N[C@@H](CC(C)C)C(=O)N[C@H](CCCCN)C(=O)N[C@H](CCCCN)C(=O)N[C@@H](CC(C)C)C(=O)N[C@@H](CC(C)C)C(=O)N[C@@H](CCCNC(=N)N)C(=O)N[C@H](CC(C)C)C(=O)N[C@@H](CC(C)C)C(=O)N[C@@H](CCCCN)C(=O)N[C@@H](CCCCN)C(N)=O [Peptide 5, [D]-L^3,6,13,K^8,9-GK4R2L9] (H-GL[dL]LR[dL]L[dK][dK]LLR[dL]LKK-NH2; N-terminus assumed)
